Test results: the supplement of paper PMC10307832

Columns and labels:
Experiment in all cases: relative viability (nuclei count vs DMSO), 5 days (fraction); higher = more cells survive
Cediranib + Luminespib = compound: COc1cc2c(Oc3ccc4[nH]c(C)cc4c3F)ncnc2cc1OCCCN1CCCC1 [Cediranib] + CCNC(=O)c1noc(-c2cc(C(C)C)c(O)cc2O)c1-c1ccc(CN2CCOCC2)cc1 [Luminespib] (partner 0.01 µM)
How it was run: (§1)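 A single step with final 0.05% Triton X-100, 1% formaldehyde and 1 ug/ml Hoechst fixed the cells and stained nuclei 5 days after treatment. Lung cancer cell lines in 1536-well plates had been treated by pin tool the day after seeding with one drug alone or a fixed anchor-drug dose plus five library-drug doses (not always all listed) in √10 steps, and nuclei were counted on 4× images. Relative viability is the ratio of nuclei in treated wells to nuclei in vehicle wells, taken as the median of duplicate plates.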

Cediranib + Pictilisib = compound: COc1cc2c(Oc3ccc4[nH]c(C)cc4c3F)ncnc2cc1OCCCN1CCCC1 [Cediranib] + CS(=O)(=O)N1CCN(Cc2cc3nc(-c4cccc5[nH]ncc45)nc(N4CCOCC4)c3s2)CC1 [Pictilisib] (partner 1 µM)
How it was run: as §1

Decitabine + Navitoclax = compound: Nc1ncn([C@H]2C[C@H](O)[C@@H](CO)O2)c(=O)n1 [Decitabine] + CC1(C)CCC(c2ccc(Cl)cc2)=C(CN2CCN(c3ccc(C(=O)NS(=O)(=O)c4ccc(N[C@H](CCN5CCOCC5)CSc5ccccc5)c(S(=O)(=O)C(F)(F)F)c4)cc3)CC2)C1 [Navitoclax] (partner 0.5 µM)
How it was run: as §1

Decitabine + Tozasertib = compound: Nc1ncn([C@H]2C[C@H](O)[C@@H](CO)O2)c(=O)n1 [Decitabine] + Cc1cc(Nc2cc(N3CCN(C)CC3)nc(Sc3ccc(NC(=O)C4CC4)cc3)n2)n[nH]1 [Tozasertib] (partner 0.1 µM)
How it was run: as §1

Cell Line	relative viability (Cediranib + Luminespib; first compound 0.04 µM)	relative viability (Cediranib + Luminespib; first compound 0.1265 µM)	relative viability (Cediranib + Luminespib; first compound 0.4 µM)	relative viability (Cediranib + Luminespib; first compound 1.265 µM)	relative viability (Cediranib + Luminespib; first compound 4 µM)	relative viability (Cediranib + Pictilisib; first compound 0.04 µM)	relative viability (Cediranib + Pictilisib; first compound 0.1265 µM)	relative viability (Cediranib + Pictilisib; first compound 0.4 µM)	relative viability (Cediranib + Pictilisib; first compound 1.265 µM)	relative viability (Cediranib + Pictilisib; first compound 4 µM)	relative viability (Decitabine + Navitoclax; first compound 0.04 µM)	relative viability (Decitabine + Navitoclax; first compound 0.1265 µM)	relative viability (Decitabine + Navitoclax; first compound 0.4 µM)	relative viability (Decitabine + Navitoclax; first compound 1.265 µM)	relative viability (Decitabine + Navitoclax; first compound 4 µM)	relative viability (Decitabine + Tozasertib; first compound 0.04 µM)	relative viability (Decitabine + Tozasertib; first compound 0.1265 µM)	relative viability (Decitabine + Tozasertib; first compound 0.4 µM)	relative viability (Decitabine + Tozasertib; first compound 1.265 µM)	relative viability (Decitabine + Tozasertib; first compound 4 µM)
NCI-H2126	0.904	1.03	0.873	0.752	0.816	0.442	0.432	0.458	0.452	0.435	0.777	0.787	0.548	0.491	0.574	0.648	0.606	0.425	0.451	0.399
NCI-H2170	0.654	0.704	0.666	0.547	0.848	0.259	0.275	0.306	0.254	0.301	0.402	0.338	0.382	0.238	0.204	0.447	0.472	0.347	0.298	0.217
NCI-H2228	0.118	0.176	0.129	0.144	0.14	0.522	0.504	0.459	0.288	0.557	0.667	0.525	0.264	0.337	0.21	0.176	0.207	0.134	0.114	0.104
NCI-H2347	0.321	0.404	0.637	0.506	0.747	0.592		0.742	0.516	0.444	0.792	0.543	0.425	0.385	0.348	0.415	0.486	0.493	0.358	0.347
NCI-H2405	0.897	0.712	0.649	0.657	0.532	0.457	0.708	0.416	0.305	0.415	0.769	0.837	0.455	0.355	0.244	0.521	0.598	0.526	0.388	0.337
NCI-H3122	0.0861	0.09	0.0816	0.0839	0.12	0.669	0.674	0.585	0.55	0.588	0.999	0.984	0.97	0.886	0.76	0.328	0.369	0.118		0.246
PC-3 [JPC-3]	0.649	0.654	0.665	0.735	0.449	0.659	0.905	0.708	0.671	0.768		0.601	0.526	0.463	0.51	0.593	0.59	0.459	0.448	0.404
PC-14	0.137	0.16	0.154	0.108	0.119	0.826	0.918	0.487	0.438	0.652	0.51	0.556	0.231	0.162	0.166	0.25	0.182	0.0787	0.0922	0.0951
RERF-LC-KJ	1.39	1.15	1.27	1.25	1.25	0.526	0.573	0.516	0.461	0.431	0.779	0.844	0.279	0.597	0.618	0.511	0.446		0.309	0.379
SK-LU-1	0.203	0.195	0.183	0.203	0.194	0.632	0.796	0.54	0.497	0.498	0.262	0.385	0.23	0.335	0.282	0.283	0.288	0.214	0.238	0.24
SK-MES-1	0.797	0.869	0.9	0.833	0.86	0.349	0.441	0.284	0.391	0.383	0.976	0.84	0.501	0.33	0.303	0.698	0.608	0.332	0.238	0.255
SW 1573	0.347	0.324	0.256	0.21	0.24	0.544	0.486	0.428	0.474	0.486	1.15	0.89	0.687	0.356	0.217	0.165	0.167	0.172	0.124	0.108
